Data on 22 compounds can be found in patent US20260374754A1, “N-((ISOQUINOLIN-6-YL)METHYL)-1H-PYRAZOLE-4-CARBOXAMIDE DERIVATIVES AS PLASMA KALLIKREIN INHIBITORS FOR THE TREATMENT OF HEREDITARY ANGIODEMA” (Takeda Pharmaceutical Company Limited, priority 2022, published 2026).

The target in the assay is human activated kallikrein enzyme (Homo sapiens, UniProt P03952). The assay is described as follows: Inhibition of human activated plasma kallikrein, fluorogenic PFR-AMC substrate, 500 pM enzyme format. Conditions: 500 pM activated kallikrein; 300 μM PFR-AMC; 30 min preincubation; 10 min room temperature; pH 7.5; read-out: Primary Dose Response Assay: Average EC50. It counts as biochemical. Put shortly:
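500 pM activated kallikrein preincubated 30 min at room temperature with inhibitors in pH 7.5 Tris/EDTA/NaCl buffer with PEG-400 and Triton X-100. Reaction started with 300 μM PFR-AMC, run 10 min at room temperature; AMC fluorescence read at ex 380/em 460 nm.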

pEC50: −log10 of the molar value. Some results are limits rather than exact numbers.

The pEC50 is the negative decadic logarithm of the EC50, by convention in mol/L.

human activated kallikrein enzyme, sequence (P03952 391-638 limits assumed): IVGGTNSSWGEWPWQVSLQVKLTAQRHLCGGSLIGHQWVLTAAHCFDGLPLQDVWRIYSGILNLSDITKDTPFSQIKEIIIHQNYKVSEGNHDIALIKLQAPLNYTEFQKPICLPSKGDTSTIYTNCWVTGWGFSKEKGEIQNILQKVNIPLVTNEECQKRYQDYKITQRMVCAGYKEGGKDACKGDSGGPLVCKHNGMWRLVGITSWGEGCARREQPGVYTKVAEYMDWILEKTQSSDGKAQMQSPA
human activated kallikrein enzyme, sequence (P03952 20-390 partner limits assumed): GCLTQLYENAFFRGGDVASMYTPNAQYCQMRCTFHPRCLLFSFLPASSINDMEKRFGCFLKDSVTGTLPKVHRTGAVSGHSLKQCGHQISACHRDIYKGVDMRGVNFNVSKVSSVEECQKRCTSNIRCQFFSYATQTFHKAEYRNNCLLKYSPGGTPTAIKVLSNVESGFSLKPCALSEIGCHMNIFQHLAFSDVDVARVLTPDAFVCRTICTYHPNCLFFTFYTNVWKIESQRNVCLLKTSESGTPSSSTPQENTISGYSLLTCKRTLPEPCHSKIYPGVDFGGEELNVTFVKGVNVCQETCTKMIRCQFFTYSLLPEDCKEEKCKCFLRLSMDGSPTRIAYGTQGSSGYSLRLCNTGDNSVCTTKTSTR

Consider `Cc1cc2c(N)nccc2c(C)c1CNC(=O)c1cnn(Cc2ccc3c(-c4ccccn4)cccc3c2)c1` [Example 114, N-((1-amino-5,7-dimethylisoquinolin-6-yl)methyl)-1-((5-(pyridin-2-yl)naphthalen-2-yl)methyl)-1H-pyrazole-4-carboxamide], for which the pEC50 was over 9.00. On to `COc1c(F)cccc1Cc1ccc(Cn2cc(C(=O)NCc3c(C)cc4c(N)nccc4c3C)cn2)cc1` [Example 116, N-((1-amino-5,7-dimethylisoquinolin-6-yl)methyl)-1-(4-(3-fluoro-2-methoxybenzyl)benzyl)-1H-pyrazole-4-carboxamide], for which the negative logarithm of the EC50 (pEC50) is 8.00 to 9.00. In the case of `Cc1cc2c(N)nccc2c(C)c1CNC(=O)c1cnn(Cc2ccc(Cc3nncn3C)cc2)c1` [Example 117, N-((1-amino-5,7-dimethylisoquinolin-6-yl)methyl)-1-(4-((4-methyl-4H-1,2,4-triazol-3-yl)methyl)benzyl)-1H-pyrazole-4-carboxamide], the pEC50 is 8.00 to 9.00.

As to `Cc1cc2c(N)nccc2c(C)c1CNC(=O)c1cnn(Cc2ccccc2C2CC2)c1` [Example 118, N-((1-amino-5,7-dimethylisoquinolin-6-yl)methyl)-1-(2-cyclopropylbenzyl)-1H-pyrazole-4-carboxamide], the negative logarithm of the EC50 (pEC50) was 6.00 to 7.00. Turning to `Cc1cc2c(N)nccc2c(C)c1CNC(=O)c1cnn(Cc2ccc(C(C)C(=O)N(C)C)cc2)c1` (stereo not shown) [Example 119, N-((1-amino-5,7-dimethylisoquinolin-6-yl)methyl)-1-(4-(1-(dimethylamino)-1-oxopropan-2-yl)benzyl)-1H-pyrazole-4-carboxamide], the pEC50 was over 9.00.

In the case of `Cc1cc2c(N)nccc2c(C)c1CNC(=O)c1cnn(C(C)c2ccc3ncc(Cl)cc3c2)c1` (stereo not shown) [Example 120, N-((1-amino-5,7-dimethylisoquinolin-6-yl)methyl)-1-(1-(3-chloroquinolin-6-yl)ethyl)-1H-pyrazole-4-carboxamide], the negative-log EC50 (pEC50) is over 9.00. The same measure for `Cc1cc2c(N)nccc2c(C)c1CNC(=O)c1cnn(Cc2cc3cc(C4CC4)ccn3n2)c1` [Example 121, N-((1-amino-5,7-dimethylisoquinolin-6-yl)methyl)-1-((5-cyclopropylpyrazolo[1,5-a]pyridin-2-yl)methyl)-1H-pyrazole-4-carboxamide]: over 9.00; for `Cc1cc2c(N)nccc2c(C)c1CNC(=O)c1cnn(Cc2ccc(C3(C(=O)N4CCCC4)CC3)cc2)c1` [Example 122, N-((1-amino-5,7-dimethylisoquinolin-6-yl)methyl)-1-(4-(1-(pyrrolidine-1-carbonyl)cyclopropyl)benzyl)-1H-pyrazole-4-carboxamide]: over 9.00.

As to `C=Cc1cnc2ccc(Cn3cc(C(=O)NCc4c(C)cc5c(N)nccc5c4C)cn3)cc2c1` [Example 123, N-((1-amino-5,7-dimethylisoquinolin-6-yl)methyl)-1-((3-vinylquinolin-6-yl)methyl)-1H-pyrazole-4-carboxamide], the negative logarithm of the EC50 (pEC50) was over 9.00. As for `CCc1cnc2ccc(Cn3cc(C(=O)NCc4c(C)cc5c(N)nccc5c4C)cn3)cc2c1` [Example 124, N-((1-amino-5,7-dimethylisoquinolin-6-yl)methyl)-1-((3-ethylquinolin-6-yl)methyl)-1H-pyrazole-4-carboxamide], the negative-log EC50 (pEC50) is over 9.00. In the case of `Cc1cc2c(N)nccc2c(C)c1CNC(=O)c1cnn(Cc2ccc3c(-n4ccccc4=O)cccc3c2)c1` [Example 125, N-((1-amino-5,7-dimethylisoquinolin-6-yl)methyl)-1-((5-(2-oxopyridin-1(2H)-yl)naphthalen-2-yl)methyl)-1H-pyrazole-4-carboxamide], the negative logarithm of the EC50 (pEC50) is over 9.00. The figure for `COc1ccc2nc(Cn3cc(C(=O)NCc4c(C)cc5c(N)nccc5c4C)cn3)ncc2c1` [Example 126, N-((1-amino-5,7-dimethylisoquinolin-6-yl)methyl)-1-((6-methoxyquinazolin-2-yl)methyl)-1H-pyrazole-4-carboxamide] is 7.00 to 8.00; for `Cc1cc2c(N)nccc2c(C)c1CNC(=O)c1cnn([C@H](C)c2ccccc2)c1` [Example 127, (R)-N-((1-amino-5,7-dimethylisoquinolin-6-yl)methyl)-1-(1-phenylethyl)-1H-pyrazole-4-carboxamide] it is 6.00 to 7.00; for `Cc1ccc2nc(Cn3cc(C(=O)N(C)Cc4c(C)cc5c(N)nccc5c4C)cn3)cn2c1` [Example 128, N-((1-amino-5,7-dimethylisoquinolin-6-yl)methyl)-N-methyl-1-((6-methylimidazo[1,2-a]pyridin-2-yl)methyl)-1H-pyrazole-4-carboxamide] it is 7.00 to 8.00. For the compound `Cc1ccc2nc(C(C(=O)O)n3cc(C(=O)NCc4c(C)cc5c(N)nccc5c4C)cn3)cn2c1` (stereo not shown) [Example 129, 2-(4-(((1-amino-5,7-dimethylisoquinolin-6-yl)methyl)carbamoyl)-1H-pyrazol-1-yl)-2-(6-methylimidazo[1,2-a]pyridin-2-yl)acetic acid], the pEC50 is 8.00 to 9.00. Regarding `Cc1ccc2nc(C(CO)n3cc(C(=O)NCc4c(C)cc5c(N)nccc5c4C)cn3)cn2c1` (stereo not shown) [Example 130, N-((1-amino-5,7-dimethylisoquinolin-6-yl)methyl)-1-(2-hydroxy-1-(6-methylimidazo[1,2-a]pyridin-2-yl)ethyl)-1H-pyrazole-4-carboxamide], the pEC50 was over 9.00. In the case of `Cc1cc2c(N)nccc2c(C)c1CNC(=O)c1cnn(Cc2ccc(CC(=O)O)cc2)c1` [Example 131, 2-(4-((4-(((1-amino-5,7-dimethylisoquinolin-6-yl)methyl)carbamoyl)-1H-pyrazol-1-yl)methyl)phenyl)acetic acid], the negative-log EC50 (pEC50) is 6.00 to 7.00. Consider `CCOC(=O)Nc1nccc2c(C)c(CNC(=O)c3cnn(Cc4ccc5ncc(Cl)cc5c4)c3)c(C)cc12` [Example 132, ethyl (6-((1-((3-chloroquinolin-6-yl)methyl)-1H-pyrazole-4-carboxamido)methyl)-5,7-dimethylisoquinolin-1-yl)carbamate], for which the negative logarithm of the EC50 (pEC50) is 7.00 to 8.00. Take `CC(=O)Nc1nccc2c(C)c(CNC(=O)c3cnn(Cc4ccc5ncc(Cl)cc5c4)c3)c(C)cc12` [Example 133, N-((1-acetamido-5,7-dimethylisoquinolin-6-yl)methyl)-1-((3-chloroquinolin-6-yl)methyl)-1H-pyrazole-4-carboxamide]: the pEC50 was 7.00 to 8.00. Take `CNc1nccc2c(C)c(CNC(=O)c3cnn(Cc4cn5cc(C6CC6)ccc5n4)c3)c(C)cc12` [Example 134, 1-((6-cyclopropylimidazo[1,2-a]pyridin-2-yl)methyl)-N-((5,7-dimethyl-1-(methylamino)isoquinolin-6-yl)methyl)-1H-pyrazole-4-carboxamide]: the pEC50 was over 9.00. In the case of `Cc1cc2nc(Cn3cc(C(=O)NCc4c(C)cc5c(N)nccc5c4C)cn3)cn2cc1Br` [Example 135, N-((1-amino-5,7-dimethylisoquinolin-6-yl)methyl)-1-((6-bromo-7-methylimidazo[1,2-a]pyridin-2-yl)methyl)-1H-pyrazole-4-carboxamide], the pEC50 was over 9.00. For the compound `Cc1cc2c(N)nccc2c(C)c1CNC(=O)c1cnn(Cc2cn3c(C)c(C)ccc3n2)c1` [Example 136, N-((1-amino-5,7-dimethylisoquinolin-6-yl)methyl)-1-((5,6-dimethylimidazo[1,2-a]pyridin-2-yl)methyl)-1H-pyrazole-4-carboxamide], the negative-log EC50 (pEC50) was over 9.00.
